{
  "source": "paper PMC12196264",
  "about": "“Design and Synthesis of Pyridine-Based Pyrrolo[2,3-d]pyrimidine Analogs as CSF1R Inhibitors: Molecular Hybridization and Scaffold Hopping Approach” (Pharmaceuticals, 2025)",
  "key": {"[1]": {"tested_on": "Ba/F3 cells engineered to be dependent on CSF1R", "assay": "Cell viability assay with Ba/F3-hCSF1R cells", "assay_type": "cell-based", "method": "(§1) Given the promising enzymatic activity of the synthesized derivatives, cellular assays were performed using Ba/F3 cells engineered to depend on constitutively active CSF1R. […] We have also previously observed a low correlation between enzymatic and cellular activities, which may arise from the enzymatic protein construct not accurately mimicking the active conformation of CSF1R in a cellular context.\n(§2) Performed as reported previously."}, "[2]": {"tested_on": "Ba/F3 cells engineered to be dependent on CSF1R but added additional IL-3", "assay": "Cell viability assay with Ba/F3-hCSF1R cells with added IL-3", "assay_type": "cell-based", "settings": "Mus musculus, BaF3; Ba/F3 CSF1R cells with additional IL-3; read-out: Cellular Assay IC50 (μM), Ba/F3 IL-3", "method": "as §1, §2"}, "[3]": {"tested_on": "panel of 50 kinases", "assay": "Kinase panel selectivity", "assay_type": "biochemical", "settings": "1 μM", "method": "To further evaluate potential off-target activity, compound 14c was screened against a panel of 50 kinases at a concentration of 1 μM. […] Inhibitor selectivity can be quantified using the selectivity score (S-score), which assumes that low inhibitory activity is clinically irrelevant. The S-score is calculated by dividing the number of kinases inhibited above a defined threshold by the total number of kinases tested. […] Further details on the selectivity data can be found in SI (Table S1). […]\n(§3) Ta b l e S 1. Inhibition (%) by compound 14c towards di7erent kinases. Values are average of two\n(§4) measurements at 1000 nM test concentration. The ATP concentration was equal to KM.\n(§5) Kinase ATP conc. % inhibition"}, "[4]": {"assay": "Microsomal stability, mouse liver microsomes", "assay_type": "in vitro ADME", "settings": "mouse liver microsome", "method": "The aqueous solubility of the compounds and metabolic stability under oxidative conditions was performed as described previously."}, "[5]": {"target": "JAK1 (Homo sapiens, UniProt P23458)", "sequence (P23458 whole entry, species assumed)": "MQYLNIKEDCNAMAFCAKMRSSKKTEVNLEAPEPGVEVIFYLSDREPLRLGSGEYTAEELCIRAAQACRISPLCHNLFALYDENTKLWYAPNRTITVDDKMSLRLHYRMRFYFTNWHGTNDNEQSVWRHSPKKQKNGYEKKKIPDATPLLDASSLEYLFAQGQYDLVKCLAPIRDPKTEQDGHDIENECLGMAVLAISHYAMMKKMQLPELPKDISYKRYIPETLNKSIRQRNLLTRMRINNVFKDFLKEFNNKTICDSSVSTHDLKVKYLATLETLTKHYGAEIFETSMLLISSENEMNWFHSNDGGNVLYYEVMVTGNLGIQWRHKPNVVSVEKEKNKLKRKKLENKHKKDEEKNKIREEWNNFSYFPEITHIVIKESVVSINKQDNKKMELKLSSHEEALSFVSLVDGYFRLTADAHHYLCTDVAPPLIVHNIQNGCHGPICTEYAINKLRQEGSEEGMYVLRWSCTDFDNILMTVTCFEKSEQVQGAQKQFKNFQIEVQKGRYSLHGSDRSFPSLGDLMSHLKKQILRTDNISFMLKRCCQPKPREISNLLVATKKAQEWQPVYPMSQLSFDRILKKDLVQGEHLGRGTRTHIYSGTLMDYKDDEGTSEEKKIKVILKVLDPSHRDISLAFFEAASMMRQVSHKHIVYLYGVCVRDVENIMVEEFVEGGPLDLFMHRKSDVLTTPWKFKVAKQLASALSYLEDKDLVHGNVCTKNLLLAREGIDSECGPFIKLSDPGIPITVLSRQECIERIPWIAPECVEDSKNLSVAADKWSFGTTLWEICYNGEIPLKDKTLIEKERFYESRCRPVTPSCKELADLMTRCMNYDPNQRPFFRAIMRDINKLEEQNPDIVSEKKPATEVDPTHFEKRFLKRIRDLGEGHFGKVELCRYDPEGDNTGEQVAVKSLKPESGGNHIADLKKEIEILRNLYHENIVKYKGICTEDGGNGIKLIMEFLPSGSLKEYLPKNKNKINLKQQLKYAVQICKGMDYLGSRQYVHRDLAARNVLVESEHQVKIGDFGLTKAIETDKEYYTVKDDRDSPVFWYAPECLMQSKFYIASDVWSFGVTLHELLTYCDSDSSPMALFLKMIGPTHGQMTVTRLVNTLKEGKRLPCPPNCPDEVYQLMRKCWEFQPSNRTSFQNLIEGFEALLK", "assay": "Kinase panel", "assay_type": "biochemical", "method": "as §3, §4, §5"}, "[6]": {"target": "ERBB2 (Homo sapiens, UniProt P04626)", "assay": "Kinase panel", "assay_type": "biochemical", "method": "as §3, §4, §5"}, "[7]": {"target": "LYN B (Homo sapiens, UniProt P07948)", "assay": "Kinase panel", "assay_type": "biochemical", "method": "as §3, §4, §5"}, "[8]": {"target": "CSF1R (Homo sapiens, UniProt P07333)", "sequence (P07333 20-972)": "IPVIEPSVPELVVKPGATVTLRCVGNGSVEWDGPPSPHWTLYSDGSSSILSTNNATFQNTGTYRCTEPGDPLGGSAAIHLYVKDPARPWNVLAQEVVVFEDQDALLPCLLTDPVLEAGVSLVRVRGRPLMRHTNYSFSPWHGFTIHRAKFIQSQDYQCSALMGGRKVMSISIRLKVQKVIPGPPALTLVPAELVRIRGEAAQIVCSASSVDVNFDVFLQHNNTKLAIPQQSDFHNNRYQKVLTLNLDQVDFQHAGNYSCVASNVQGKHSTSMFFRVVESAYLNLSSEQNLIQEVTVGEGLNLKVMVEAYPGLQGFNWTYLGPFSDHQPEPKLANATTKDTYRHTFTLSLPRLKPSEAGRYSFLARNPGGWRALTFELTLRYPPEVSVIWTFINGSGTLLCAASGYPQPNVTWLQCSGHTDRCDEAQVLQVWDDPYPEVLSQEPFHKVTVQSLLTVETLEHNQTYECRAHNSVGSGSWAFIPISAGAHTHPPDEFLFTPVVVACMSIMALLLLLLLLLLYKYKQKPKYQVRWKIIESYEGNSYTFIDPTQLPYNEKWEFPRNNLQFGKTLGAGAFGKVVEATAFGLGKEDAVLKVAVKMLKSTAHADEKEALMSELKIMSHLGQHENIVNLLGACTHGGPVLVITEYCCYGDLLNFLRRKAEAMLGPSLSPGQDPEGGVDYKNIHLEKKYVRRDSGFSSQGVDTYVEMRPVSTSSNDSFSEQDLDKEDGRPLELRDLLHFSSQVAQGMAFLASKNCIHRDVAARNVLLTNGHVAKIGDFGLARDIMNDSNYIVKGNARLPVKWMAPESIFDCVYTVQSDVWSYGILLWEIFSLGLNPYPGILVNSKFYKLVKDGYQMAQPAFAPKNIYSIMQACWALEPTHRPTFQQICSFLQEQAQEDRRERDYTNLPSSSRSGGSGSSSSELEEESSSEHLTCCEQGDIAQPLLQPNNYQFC", "assay": "Kinase panel", "assay_type": "biochemical", "method": "as §3, §4, §5"}, "[9]": {"target": "ROCK1 (Homo sapiens, UniProt Q13464)", "sequence (Q13464 whole entry, species assumed)": "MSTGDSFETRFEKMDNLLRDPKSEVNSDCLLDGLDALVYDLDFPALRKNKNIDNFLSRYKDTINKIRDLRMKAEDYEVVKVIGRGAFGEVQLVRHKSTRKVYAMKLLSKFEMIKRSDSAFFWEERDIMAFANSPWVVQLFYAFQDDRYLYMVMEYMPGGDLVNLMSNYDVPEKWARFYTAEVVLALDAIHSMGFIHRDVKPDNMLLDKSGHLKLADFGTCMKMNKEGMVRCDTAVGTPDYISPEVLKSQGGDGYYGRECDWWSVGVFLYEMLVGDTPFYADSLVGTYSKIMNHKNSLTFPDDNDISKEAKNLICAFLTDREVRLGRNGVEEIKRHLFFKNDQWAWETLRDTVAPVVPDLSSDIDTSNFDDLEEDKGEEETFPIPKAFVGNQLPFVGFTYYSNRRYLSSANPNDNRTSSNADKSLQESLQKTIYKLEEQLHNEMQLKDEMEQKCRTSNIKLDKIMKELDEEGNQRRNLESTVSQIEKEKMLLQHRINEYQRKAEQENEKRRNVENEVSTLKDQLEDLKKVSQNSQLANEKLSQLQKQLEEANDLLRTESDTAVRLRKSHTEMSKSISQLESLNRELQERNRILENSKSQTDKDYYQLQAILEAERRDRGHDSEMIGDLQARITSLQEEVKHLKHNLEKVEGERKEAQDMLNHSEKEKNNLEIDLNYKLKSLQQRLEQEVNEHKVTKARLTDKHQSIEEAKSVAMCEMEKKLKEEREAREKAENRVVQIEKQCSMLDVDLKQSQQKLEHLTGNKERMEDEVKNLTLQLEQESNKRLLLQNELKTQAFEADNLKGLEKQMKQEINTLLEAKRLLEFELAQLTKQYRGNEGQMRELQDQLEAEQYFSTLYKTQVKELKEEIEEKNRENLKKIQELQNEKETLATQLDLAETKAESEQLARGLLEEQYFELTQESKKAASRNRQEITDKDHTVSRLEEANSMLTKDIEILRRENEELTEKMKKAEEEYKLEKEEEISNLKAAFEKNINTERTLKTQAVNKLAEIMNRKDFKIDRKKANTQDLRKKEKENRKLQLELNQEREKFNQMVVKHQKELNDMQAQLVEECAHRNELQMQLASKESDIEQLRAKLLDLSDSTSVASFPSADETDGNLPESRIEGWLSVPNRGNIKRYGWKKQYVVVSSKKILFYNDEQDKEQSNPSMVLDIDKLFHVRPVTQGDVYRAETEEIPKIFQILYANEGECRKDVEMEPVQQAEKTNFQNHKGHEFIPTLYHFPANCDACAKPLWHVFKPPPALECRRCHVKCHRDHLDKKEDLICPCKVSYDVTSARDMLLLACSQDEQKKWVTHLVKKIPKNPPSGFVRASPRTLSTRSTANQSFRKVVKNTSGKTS", "assay": "Kinase panel", "assay_type": "biochemical", "method": "as §3, §4, §5"}, "[10]": {"target": "FER (Homo sapiens, UniProt P16591)", "sequence (P16591 whole entry, species assumed)": "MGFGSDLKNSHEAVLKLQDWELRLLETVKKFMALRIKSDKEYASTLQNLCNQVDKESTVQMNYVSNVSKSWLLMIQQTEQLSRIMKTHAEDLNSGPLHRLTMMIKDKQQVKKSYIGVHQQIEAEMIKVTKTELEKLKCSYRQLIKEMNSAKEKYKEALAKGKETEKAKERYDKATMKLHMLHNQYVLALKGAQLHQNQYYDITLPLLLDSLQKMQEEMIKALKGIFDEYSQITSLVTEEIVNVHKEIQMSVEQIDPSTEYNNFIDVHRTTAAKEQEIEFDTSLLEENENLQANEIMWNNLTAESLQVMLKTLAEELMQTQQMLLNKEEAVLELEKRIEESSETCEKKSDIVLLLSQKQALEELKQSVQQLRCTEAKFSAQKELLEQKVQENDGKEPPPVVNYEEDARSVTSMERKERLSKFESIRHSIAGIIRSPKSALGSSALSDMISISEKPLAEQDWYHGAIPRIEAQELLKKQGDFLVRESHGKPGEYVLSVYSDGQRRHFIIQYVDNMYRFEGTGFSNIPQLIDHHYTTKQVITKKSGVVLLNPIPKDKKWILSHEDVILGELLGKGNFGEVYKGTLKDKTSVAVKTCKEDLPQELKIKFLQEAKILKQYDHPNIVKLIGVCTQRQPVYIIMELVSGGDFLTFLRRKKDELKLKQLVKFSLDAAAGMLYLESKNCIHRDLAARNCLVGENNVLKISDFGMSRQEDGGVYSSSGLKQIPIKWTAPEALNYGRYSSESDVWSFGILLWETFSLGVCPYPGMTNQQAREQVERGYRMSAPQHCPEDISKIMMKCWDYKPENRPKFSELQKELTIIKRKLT", "assay": "Kinase panel", "assay_type": "biochemical", "method": "as §3, §4, §5"}, "[11]": {"target": "RET (Homo sapiens, UniProt P07949)", "assay": "Kinase panel", "assay_type": "biochemical", "method": "as §3, §4, §5"}, "[12]": {"target": "Aurora A (Homo sapiens, UniProt O14965)", "assay": "Kinase panel", "assay_type": "biochemical", "method": "as §3, §4, §5"}, "[13]": {"target": "ITK (Homo sapiens, UniProt Q08881)", "assay": "Kinase panel", "assay_type": "biochemical", "method": "as §3, §4, §5"}, "[14]": {"target": "CAMK1D (Homo sapiens, UniProt Q8IU85)", "assay": "Kinase panel", "assay_type": "biochemical", "method": "as §3, §4, §5"}, "[15]": {"target": "FLT1 (Homo sapiens, UniProt P17948)", "assay": "Kinase panel", "assay_type": "biochemical", "method": "as §3, §4, §5"}, "[16]": {"target": "DYRK1A (Homo sapiens, UniProt Q13627)", "assay": "Kinase panel", "assay_type": "biochemical", "method": "as §3, §4, §5"}, "[17]": {"target": "ERBB4 (Homo sapiens, UniProt Q15303)", "assay": "Kinase panel", "assay_type": "biochemical", "method": "as §3, §4, §5"}, "[18]": {"target": "BLK (Homo sapiens, UniProt P51451)", "sequence (P51451 whole entry, species assumed)": "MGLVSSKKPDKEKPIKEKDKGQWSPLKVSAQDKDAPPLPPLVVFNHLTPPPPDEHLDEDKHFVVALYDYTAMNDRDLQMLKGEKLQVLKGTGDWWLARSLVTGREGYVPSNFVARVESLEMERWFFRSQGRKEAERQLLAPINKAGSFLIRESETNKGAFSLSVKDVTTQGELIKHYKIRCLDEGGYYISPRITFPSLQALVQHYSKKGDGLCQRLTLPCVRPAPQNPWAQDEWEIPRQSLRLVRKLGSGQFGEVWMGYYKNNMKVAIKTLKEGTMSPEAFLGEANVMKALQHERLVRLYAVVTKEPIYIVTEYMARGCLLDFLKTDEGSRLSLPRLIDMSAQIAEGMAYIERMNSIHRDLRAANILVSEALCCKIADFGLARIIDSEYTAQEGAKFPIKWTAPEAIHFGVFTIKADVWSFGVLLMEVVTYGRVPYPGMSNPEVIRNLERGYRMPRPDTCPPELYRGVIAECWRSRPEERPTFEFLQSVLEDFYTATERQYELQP", "assay": "Kinase panel", "assay_type": "biochemical", "method": "as §3, §4, §5"}, "[19]": {"target": "cKIT (Homo sapiens, UniProt P10721)", "assay": "KIT-WT LanthaScreen binding assay (Kd)", "settings": "single eight-point titrations, TR-FRET LanthaScreen Binding Assay; R^2 of fit in parentheses; read-out: Enzymatic Assay KIT (Kd)", "method": "The TR-FRET-based LanthaScreen Binding Assay was performed to determine Kd values of synthesized derivatives against cKIT.\nSubsequently, 8 µL of kinase anti-GST antibody mixture was added, followed by incubation at 4 °C for 30 min in a pre-cooled, humidified box to minimize edge effects. The reaction was initiated by adding 5 µL of tracer working solution and mixed on a Bioshake 5000 microplate shaker (Q Instruments, Jena, Germany). […] Kd values were calculated from sigmoidal dose-response curves using Scigilian Analyze software version 5.8.5.15 (Scigilian, Montreal, QC, Canada)."}},
  "data": [
    {"smiles": "Cc1cccc(CN(C)c2ncnc3[nH]c(-c4ccc(NCc5ccc(C(F)(F)F)nc5)nc4)cc23)c1", "note": "[Compound 14c, N-Methyl-N-(3-methylbenzyl)-6-(6-(((6-(trifluoromethyl)pyridin-3-yl)methyl)amino)pyridin-3-yl)-7H-pyrrolo[2,3-d]pyrimidin-4-amine]", "values": [
      {"measurement": "Cellular activity in Ba/F3 CSF1R cells (in words)", "setting": "[1]; Ba/F3 cells dependent on constitutively active CSF1R", "result": "completely inactive in cells"},
      {"measurement": "IC50", "setting": "[1]; Mus musculus, BaF3, Ba/F3 cells dependent on CSF1R, with standard deviation, read-out: Cellular Assay IC50 (μM), Ba/F3 CSF1R", "result": "> 10", "unit": "µM"},
      {"measurement": "IC50", "setting": "[2]", "result": "> 10", "unit": "µM"},
      {"measurement": "Selectivity towards CSF1R in kinase panel (in words)", "setting": "[3]", "result": "high selectivity"},
      {"measurement": "MLM in vitro intrinsic clearing", "setting": "[4]", "result": 60.5, "unit": "µL/min/mg"},
      {"measurement": "inhibition at 1 µM", "setting": "[5]", "result": -5, "unit": "%"},
      {"measurement": "inhibition at 1 µM", "setting": "[6]", "result": 9, "unit": "%"},
      {"measurement": "inhibition at 1 µM", "setting": "[7]", "result": 26, "unit": "%"},
      {"measurement": "inhibition at 1 µM", "setting": "[8]", "result": 95, "unit": "%"},
      {"measurement": "inhibition at 1 µM", "setting": "[9]", "result": -1, "unit": "%"},
      {"measurement": "inhibition at 1 µM", "setting": "[10]", "result": 6, "unit": "%"},
      {"measurement": "inhibition at 1 µM", "setting": "[11]", "result": 14, "unit": "%"},
      {"measurement": "inhibition at 1 µM", "setting": "[12]", "result": 7, "unit": "%"},
      {"measurement": "inhibition at 1 µM", "setting": "[13]", "result": 8, "unit": "%"},
      {"measurement": "inhibition at 1 µM", "setting": "[14]", "result": 8, "unit": "%"},
      {"measurement": "inhibition at 1 µM", "setting": "[15]", "result": 5, "unit": "%"},
      {"measurement": "inhibition at 1 µM", "setting": "[16]", "result": 4, "unit": "%"},
      {"measurement": "inhibition at 1 µM", "setting": "[17]", "result": 2, "unit": "%"},
      {"measurement": "inhibition at 1 µM", "setting": "[18]", "result": 19, "unit": "%"},
      {"measurement": "Kd", "setting": "[19]", "result": "> 1000", "unit": "nM"}
    ]}
  ]
}
